# Measurements from ChEMBL document CHEMBL1221200, “Diarylquinolines target subunit c of mycobacterial ATP synthase” (Nat Chem Biol, 2007).
# pIC50, pKd: −log10 of the molar value. The source made the active and inactive calls. The calls are words filed in the database; no cut-off is given here.
# Legend:
# [1] = tested on: Mycolicibacterium smegmatis; assay: Antimicrobial activity against Mycobacterium smegmatis ATCC 607 by alamar blue assay; format: functional
# [2] = tested on: Mycobacterium tuberculosis; assay: Antimicrobial activity against Mycobacterium tuberculosis by alamar blue assay; format: functional
# [3] = molecular target: Putative uncharacterized protein atpE (Mycolicibacterium smegmatis, UniProt Q5TIX5); assay: Inhibition of Mycobacterium smegmatis ATCC 607 ATP synthase subunit c-mediated ATP synthesis after 60 mins by luminometry
# [4] = tested on: Mycobacterium tuberculosis; assay: Antimicrobial activity against Mycobacterium tuberculosis H37Rv by 7H9 broth dilution method; format: functional
# [5] = tested on: Mycobacterium tuberculosis; assay: Antimicrobial activity against Mycobacterium tuberculosis H37Rv by […] dilution method; format: functional
# [6] = tested on: Mycolicibacterium smegmatis; assay: Antimicrobial activity against wild type Mycobacterium smegmatis ATCC 607 by 7H9 agar dilution method; format: functional
# [7] = tested on: Mycolicibacterium smegmatis; assay: Antimicrobial activity against Mycobacterium smegmatis isolate R09 expressing ATP synthase AtpE D32V mutant protein by 7H9 agar dilution method; format: functional
# [8] = tested on: Mycolicibacterium smegmatis; assay: Ratio of MIC for Mycobacterium smegmatis isolate R09 expressing ATP synthase AtpE D32V mutant protein to MIC for wild type Mycobacterium smegmatis; format: functional
# [9] = tested on: Mycolicibacterium smegmatis; assay: Antimicrobial activity against wild type Mycobacterium smegmatis ATCC 607 expressing vector pSD5 by 7H9 agar dilution method; format: functional
# [10] = tested on: Mycolicibacterium smegmatis; assay: Antimicrobial activity against Mycobacterium smegmatis expressing ATP synthase AtpE D32V mutant protein by 7H9 agar dilution method; format: functional
# [11] = tested on: Mycolicibacterium smegmatis; assay: Antimicrobial activity against Mycobacterium smegmatis ATCC 607 expressing ATP synthase AtpE subunit by 7H9 agar dilution method; format: functional
# [12] = tested on: Mycolicibacterium smegmatis; assay: Ratio of MIC for Mycobacterium smegmatis expressing ATP synthase AtpE D32V mutant protein to MIC for wild type Mycobacterium smegmatis ATCC 607 expressing vector pSD5; format: functional
# [13] = tested on: Mycolicibacterium smegmatis; assay: Antimicrobial activity against wild type Mycobacterium smegmatis ATCC 607 by 7H10 agar dilution method; format: functional
# [14] = tested on: Mycolicibacterium smegmatis; assay: Antimicrobial activity against Mycobacterium smegmatis isolate R09 expressing ATP synthase AtpE D32V mutant protein by 7H10 agar dilution method; format: functional
# [15] = tested on: Mycolicibacterium smegmatis; assay: Antimicrobial activity against wild type Mycobacterium smegmatis ATCC 607 expressing vector pSD5 by 7H10 agar dilution method; format: functional
# [16] = tested on: Mycolicibacterium smegmatis; assay: Antimicrobial activity against Mycobacterium smegmatis expressing ATP synthase AtpE D32V mutant protein by 7H10 agar dilution method; format: functional
# [17] = tested on: Mycolicibacterium smegmatis; assay: Antimicrobial activity against wild-type Mycobacterium smegmatis ATCC 607 expressing ATP synthase AtpE subunit by 7H10 agar dilution method; format: functional
# ATP synthase subunit c = ATP synthase subunit c (Bacillus sp., UniProt P00845); assay: Binding affinity to Bacillus PS3 ATP synthase subunit c; set-up: species or system Bacillus sp. PS3
# [18] = Binding affinity to Bacillus PS3 ATP synthase subunit c A63P mutant; set-up: species or system Bacillus sp. PS3
# [19] = molecular target: ATP synthase subunit c (Mycobacterium tuberculosis (strain CDC 1551 / Oshkosh)) (UniProt P9WPS0); assay: Inhibition of Mycobacterium tuberculosis ATP synthase subunit c-mediated ATP synthesis after […] by luminometry
# [20] = tested on: Mycobacterium tuberculosis; assay: Antimicrobial activity against wild-type Mycobacterium tuberculosis expressing ATP synthase AtpE assessed as growth inhibition in early log-phase by 7H10 agar dilution method; format: functional, organism-based
# [21] = tested on: Mycolicibacterium smegmatis; assay: Binding affinity to Mycobacterium smegmatis ATCC 607 ATP synthase subunit alpha by mass spectroscopy
# [22] = tested on: Mycolicibacterium smegmatis; assay: Binding affinity to Mycobacterium smegmatis ATCC 607 ATP synthase subunit beta by mass spectroscopy
# [23] = molecular target: ATP synthase subunit alpha (Bacillus sp.) (UniProt P09219); assay: Binding affinity to Bacillus PS3 ATP synthase subunit alpha by mass spectroscopy
# [24] = molecular target: ATP synthase subunit beta (Bacillus sp.) (UniProt P07677); assay: Binding affinity to Bacillus PS3 ATP synthase subunit beta by mass spectroscopy
# Sequence of ATP synthase subunit beta (Bacillus sp.) (P07677 whole entry): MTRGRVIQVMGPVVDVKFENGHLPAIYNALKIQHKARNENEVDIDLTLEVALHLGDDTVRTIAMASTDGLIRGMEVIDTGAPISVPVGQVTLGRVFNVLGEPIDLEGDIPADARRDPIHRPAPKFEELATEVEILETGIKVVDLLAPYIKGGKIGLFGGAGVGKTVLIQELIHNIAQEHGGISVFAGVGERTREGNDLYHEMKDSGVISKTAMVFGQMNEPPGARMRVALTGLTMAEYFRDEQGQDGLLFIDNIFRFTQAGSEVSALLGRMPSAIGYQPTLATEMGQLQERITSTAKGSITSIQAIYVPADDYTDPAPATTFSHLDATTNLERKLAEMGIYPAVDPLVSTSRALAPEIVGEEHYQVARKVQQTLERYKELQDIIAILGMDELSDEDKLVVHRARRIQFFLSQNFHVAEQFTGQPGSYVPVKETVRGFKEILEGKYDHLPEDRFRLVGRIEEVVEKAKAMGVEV
# Sequence of Putative uncharacterized protein atpE (Q5TIX5 whole entry): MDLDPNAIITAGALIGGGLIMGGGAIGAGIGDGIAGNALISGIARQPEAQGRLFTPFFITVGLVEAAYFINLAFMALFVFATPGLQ
# Sequence of ATP synthase subunit c (P00845 whole entry): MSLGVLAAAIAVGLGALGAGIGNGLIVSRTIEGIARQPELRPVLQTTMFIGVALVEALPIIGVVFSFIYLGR
# Sequence of ATP synthase subunit c (Mycobacterium tuberculosis (strain CDC 1551 / Oshkosh)) (P9WPS0 whole entry): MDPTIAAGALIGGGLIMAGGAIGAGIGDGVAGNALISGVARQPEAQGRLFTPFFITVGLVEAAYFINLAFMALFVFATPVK
# Sequence of ATP synthase subunit alpha (Bacillus sp.) (P09219 whole entry): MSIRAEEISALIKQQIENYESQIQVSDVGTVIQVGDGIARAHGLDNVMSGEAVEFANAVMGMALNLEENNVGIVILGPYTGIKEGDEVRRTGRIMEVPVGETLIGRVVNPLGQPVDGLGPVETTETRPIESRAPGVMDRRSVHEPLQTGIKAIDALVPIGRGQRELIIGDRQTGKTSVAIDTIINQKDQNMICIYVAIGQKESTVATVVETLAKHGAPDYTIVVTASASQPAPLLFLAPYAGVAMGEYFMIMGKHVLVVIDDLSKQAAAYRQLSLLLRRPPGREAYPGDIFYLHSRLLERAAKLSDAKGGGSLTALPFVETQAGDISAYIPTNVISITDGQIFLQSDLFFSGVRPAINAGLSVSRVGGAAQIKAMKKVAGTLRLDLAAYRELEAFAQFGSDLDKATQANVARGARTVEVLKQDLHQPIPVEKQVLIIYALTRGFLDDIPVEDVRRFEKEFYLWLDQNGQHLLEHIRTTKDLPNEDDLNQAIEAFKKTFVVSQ
smiles,measurement,setting,value
CO[C@H]1/C=C/O[C@@]2(C)Oc3c(C)c(O)c4c(O)c(c(/C=N/N5CCN(C)CC5)c(O)c4c3C2=O)NC(=O)/C(C)=C\C=C\[C@H](C)[C@H](O)[C@@H](C)[C@@H](O)[C@@H](C)[C@H](OC(C)=O)[C@@H]1C [RIFAMPIN],MIC90,"[1]; Mycolicibacterium smegmatis, ATCC 607, read-out: MIC90",8.2 µg/mL
same,MIC90,"[2]; Mycobacterium tuberculosis, read-out: MIC90",0.13 µg/mL
"COc1nc2ccc(Br)cc2cc1[C@@H](c1ccccc1)[C@@](O)(CCN(C)C)c1cccc2ccccc12 (single isomer, unassigned) [BEDAQUILINE]",MIC90,[1],0.35 µg/mL
same,MIC90,[2],8.8 µg/mL
same,pIC50,[3],7.60
COc1nc2ccc(Br)cc2cc1[C@@H](c1ccccc1)[C@@](O)(CCN(C)C)c1cccc2ccccc12 [BEDAQUILINE],MIC90,[1],0.004 µg/mL
same,MIC90,[2],0.06 µg/mL
same,MIC,[4],0.03 µg/mL
same,MIC,[5],0.05 µg/mL
same,MIC,[6],0.003 µg/mL
same,MIC,[7],0.6 µg/mL
same,Ratio,[8],>100
same,MIC,[9],0.003 µg/mL
same,MIC,[10],0.5 µg/mL
same,MIC,[11],0.003 µg/mL
same,Ratio,[12],>100
same,pIC50,[3],8.60
same,MIC,[13],0.003 µg/mL
same,MIC,[14],0.7 µg/mL
same,MIC,[15],0.003 µg/mL
same,MIC,[16],0.4 µg/mL
same,MIC,[17],0.003 µg/mL
same,pKd,ATP synthase subunit c,6.30
same,pKd,[18],5.82
COc1nc2ccc(Br)cc2cc1[C@H](c1ccccc1)[C@@](O)(CCN(C)C)c1cccc2ccccc12 (racemic; 1d),MIC90,[1],0.08 µg/mL
same,MIC90,[2],1.8 µg/mL
COc1nc2ccc(Br)cc2cc1[C@@H](c1ccccc1)[C@@](O)(CCN(C)C)c1cccc2ccccc12,inhibition,[19],Dose-dependent effect
same,Activity,[20],Active
same,Activity,[21],Active
same,Activity,[22],Active
same,Activity,[23],Active
same,Activity,[24],Active
COc1nc2ccc(Br)cc2cc1[C@H](c1ccccc1)[C@@](O)(CCN(C)C)c1cccc2ccccc12 (racemic; 1c),MIC90,[1],7 µg/mL
same,MIC90,[2],44 µg/mL
same,pIC50,[3],6.12
